Values after ≈ are worked out from the molar mass of the structure shown.
Experiment: aqueous solubility of talnetant
Type: physicochemical
Conditions: aqueous medium
From the text: Typically drugs with low aqueous solubility are absorbed slowly across the walls of the gastrointestinal tract (GIT) due to poor dissolution of the solid in the GIT leading to a small diffusive driving force.

- solubility (aqueous buffer, pH 7.0): ~1 µg/mL (≈ 2.61 µM)
- solubility (pH 1, simulated gastric fluid): ~30 µg/mL (≈ 78.4 µM)
Structure (SMILES): CC[C@H](NC(=O)c1c(O)c(-c2ccccc2)nc2ccccc12)c1ccccc1 [Talnetant, (S)-(−)-N-(α-ethylbenzyl)-3-hydroxy-2-phenylquinoline4-carboxamide]
